According to article PMC6681697, “One-Step ^18F-Labeling and Preclinical Evaluation of Prostate-Specific Membrane Antigen Trifluoroborate Probes for Cancer Imaging” (Journal of Nuclear Medicine, 2019):
Like-named read-outs stand apart in the source and are kept apart here.

Key:
PSMA = target: T1, PSMA (Homo sapiens, UniProt Q04609); test: In vitro competition binding assay on LNCaP cells with ^18F-DCFPyL as radioligand
T1 construct: because it expresses PSMA endogenously and is commonly used to evaluate PSMA-targeting radiotracers; endogenous in cells; host or cells: LNCaP cells
T1 sequence (Q04609 whole entry): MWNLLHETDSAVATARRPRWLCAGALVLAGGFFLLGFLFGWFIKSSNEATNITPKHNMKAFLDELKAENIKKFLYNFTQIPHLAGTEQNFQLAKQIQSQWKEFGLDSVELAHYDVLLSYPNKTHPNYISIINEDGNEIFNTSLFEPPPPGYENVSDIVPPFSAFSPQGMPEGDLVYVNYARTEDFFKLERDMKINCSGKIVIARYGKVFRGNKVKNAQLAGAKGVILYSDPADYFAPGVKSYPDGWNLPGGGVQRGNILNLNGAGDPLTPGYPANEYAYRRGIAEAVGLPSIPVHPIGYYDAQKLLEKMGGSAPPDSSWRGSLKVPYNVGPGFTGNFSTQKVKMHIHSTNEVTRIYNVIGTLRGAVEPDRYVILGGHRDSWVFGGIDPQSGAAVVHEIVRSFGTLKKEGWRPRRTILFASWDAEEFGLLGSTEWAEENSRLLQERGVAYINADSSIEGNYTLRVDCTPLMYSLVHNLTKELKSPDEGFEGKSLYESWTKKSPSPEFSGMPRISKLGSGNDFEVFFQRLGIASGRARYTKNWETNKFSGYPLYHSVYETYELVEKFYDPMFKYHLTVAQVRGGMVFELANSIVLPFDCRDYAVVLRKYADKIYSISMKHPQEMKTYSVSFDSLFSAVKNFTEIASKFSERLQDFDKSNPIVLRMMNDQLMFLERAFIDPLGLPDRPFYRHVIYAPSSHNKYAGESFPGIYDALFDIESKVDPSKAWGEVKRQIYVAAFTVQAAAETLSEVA
Outline: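 Ki values derive from one-site competition fits of γ-counted, cell-associated radioactivity. Cells were washed cold, then harvested by trypsin.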

[1] = Distribution coefficient (LogD7.4), shake flask method; type: physicochemical; conditions: n-octanol / phosphate buffer 0.1 M pH 7.4; n = 3
Outline: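 ^18F-labeled tracer partitioned between n-octanol and 0.1 M phosphate buffer pH 7.4, vortexed 2 min, centrifuged 3,000g for 10 min. Both phases counted by γ-counter; LogD7.4 taken as log10 of octanol/buffer count ratio.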

LNCaP xenografts [2] = test: Ex vivo biodistribution and blocking studies in mice bearing LNCaP xenografts; conditions: for tumor uptake: LNCaP tumor
Outline: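 Male NODSCID IL2RγKO mice carried subcutaneous LNCaP tumours (1 × 10^7 cells, 5–8 mm) and received 1–3 MBq radiotracer, unblocked or blocked. Organs and blood taken at 60 min were weighed and γ-counted, giving %ID/g; blocked and unblocked groups were compared by multiple t tests.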

LNCaP xenografts [3] = test: PET/CT imaging of LNCaP tumor-bearing mice; type: in vivo; conditions: 1 h after injection
Method: Imaging and biodistribution experiments were performed using NODSCID IL2RγKO male mice. All experiments were conducted according to the guidelines established by the Canadian Council on Animal Care and approved by the Animal Ethics Committee of the University of British Columbia. Mice were anesthetized by inhalation with 2% isoflurane in oxygen and implanted subcutaneously with 1 × 10^7 LNCaP cells behind the left shoulder. The mice were imaged or used in biodistribution studies once the tumor reached 5–8 mm in diameter (5–6 wk).
PET imaging experiments were conducted using an Inveon preclinical PET/CT scanner (Siemens). Compounds ^18F-1,2,3,5,7, and 8 were formulated in 10% ethanol/normal saline, whereas ^18F-4 and 6 were formulated in 10% ethanol/phosphate-buffered saline. […] For blocking controls, the mice were coinjected with DCFPyL (0.5 mg). After injection, the mice were allowed to recover and roam freely in their cage. After 50 min, the mice were sedated by 2% isoflurane inhalation and positioned in the scanner. A CT scan was performed first for localization and attenuation correction. This was followed by a 10-min static PET scan. The mice were kept warm by a heating pad during image acquisition. […]

[4] = 1 h after injection, 1-way ANOVA, Dunnett test
[5] = 1 h blocked (coinjection of DCFPyL 0.5 mg)

Compound: C[N+](C)(Cc1cn(CC(=O)NCCOCCOCCC(=O)N[C@@H](Cc2ccc3ccccc3c2)C(=O)NCCCC[C@H](NC(=O)N[C@@H](CCC(=O)O)C(=O)O)C(=O)O)nn1)C[B-](F)(F)F [^18F-7]
- Ki (PSMA): 16.5 ± 5.5 nM
- logD at 2 min [1]: -3.24 ± 0.03
- T/B (tumor-to-blood ratio) (LNCaP xenografts [2]; 1 h after injection, unblocked): 54.57 ± 38.49
- T/K (tumor-to-kidney ratio) (LNCaP xenografts [2]; 1 h after injection, unblocked): 0.28 ± 0.22
- T/M (tumor-to-muscle ratio) (LNCaP xenografts [2]; 1 h after injection, unblocked): 117.13 ± 52.06
- adrenal uptake (LNCaP xenografts [2]; 1 h after injection, unblocked): 0.81 ± 0.25 %ID/g
- blood uptake (LNCaP xenografts [2]; 1 h after injection, unblocked): 0.13 ± 0.08 %ID/g
- bone uptake (LNCaP xenografts [2]; 1 h after injection, unblocked): 0.10 ± 0.07 %ID/g
- brain uptake (LNCaP xenografts [2]; 1 h after injection, unblocked): 0.01 ± 0.01 %ID/g
- fat uptake (LNCaP xenografts [2]; 1 h after injection, unblocked): 0.27 ± 0.14 %ID/g
- heart uptake (LNCaP xenografts [2]; 1 h after injection, unblocked): 0.07 ± 0.02 %ID/g
- intestine uptake (LNCaP xenografts [2]; 1 h after injection, unblocked): 22.24 ± 2.79 %ID/g
- kidney uptake (LNCaP xenografts [2]; 1 h after injection, unblocked): 20.35 ± 9.85 %ID/g
- liver uptake (LNCaP xenografts [2]; 1 h after injection, unblocked): 0.83 ± 0.34 %ID/g
- lung uptake (LNCaP xenografts [2]; 1 h after injection, unblocked): 0.40 ± 0.13 %ID/g
- muscle uptake (LNCaP xenografts [2]; 1 h after injection, unblocked): 0.05 ± 0.01 %ID/g
- pancreas uptake (LNCaP xenografts [2]; 1 h after injection, unblocked): 0.13 ± 0.11 %ID/g
- spleen uptake (LNCaP xenografts [2]; 1 h after injection, unblocked): 0.75 ± 0.36 %ID/g
- stomach uptake (LNCaP xenografts [2]; 1 h after injection, unblocked): 0.21 ± 0.12 %ID/g
- testes uptake (LNCaP xenografts [2]; 1 h after injection, unblocked): 0.18 ± 0.05 %ID/g
- kidney accumulation compared with ^18F-DCFPyL (LNCaP xenografts [2]; [4]): lower kidney accumulation
- tumor uptake compared with ^18F-DCFPyL (LNCaP xenografts [2]; [4]): lower tumor uptake than ^18F-DCFPyL
- tumor-to-blood and tumor-to-muscle ratios compared with ^18F-DCFPyL (LNCaP xenografts [2]; [4]): higher ratios
- T/B (tumor-to-blood ratio) (LNCaP xenografts [2]; [5]): 1.56 ± 0.87
- T/K (tumor-to-kidney ratio) (LNCaP xenografts [2]; [5]): 0.28 ± 0.12
- T/M (tumor-to-muscle ratio) (LNCaP xenografts [2]; [5]): 3.62 ± 3.62
- adrenal uptake (LNCaP xenografts [2]; [5]): 0.06 ± 0.09 %ID/g
- blood uptake (LNCaP xenografts [2]; [5]): 0.85 ± 1.37 %ID/g
- bone uptake (LNCaP xenografts [2]; [5]): 0.16 ± 0.25 %ID/g
- brain uptake (LNCaP xenografts [2]; [5]): 0.01 ± 0.01 %ID/g
- fat uptake (LNCaP xenografts [2]; [5]): 0.02 ± 0.02 %ID/g
- heart uptake (LNCaP xenografts [2]; [5]): 0.04 ± 0.01 %ID/g
- intestine uptake (LNCaP xenografts [2]; [5]): 26.68 ± 9.98 %ID/g
- kidney uptake (LNCaP xenografts [2]; [5]): 0.56 ± 0.18 %ID/g
- liver uptake (LNCaP xenografts [2]; [5]): 0.73 ± 0.21 %ID/g
- lung uptake (LNCaP xenografts [2]; [5]): 0.12 ± 0.04 %ID/g
- muscle uptake (LNCaP xenografts [2]; [5]): 0.24 ± 0.37 %ID/g
- pancreas uptake (LNCaP xenografts [2]; [5]): 0.06 ± 0.06 %ID/g
- spleen uptake (LNCaP xenografts [2]; [5]): 0.15 ± 0.16 %ID/g
- stomach uptake (LNCaP xenografts [2]; [5]): 1.55 ± 2.10 %ID/g
- testes uptake (LNCaP xenografts [2]; [5]): 0.04 ± 0.01 %ID/g
- tumor uptake (LNCaP xenografts [2]; 1 h after injection, unblocked, listed as 7): 5.1 ± 1.1 %ID/g
- tumor uptake (LNCaP xenografts [2]; 1 h after injection, unblocked, listed as [18F]7): 5.09 ± 1.10 %ID/g
- tumor uptake (LNCaP xenografts [2]; [5]): 0.15 ± 0.06 %ID/g

Compound: C[N+](C)(Cc1cn(CC(=O)N[C@@H](CCC(=O)O)C(=O)NCCCC[C@H](NC(=O)[C@H](CCC(=O)O)NC(=O)Cn2cc(C[N+](C)(C)C[B-](F)(F)F)nn2)C(=O)NC[C@H]2CC[C@H](C(=O)N[C@@H](Cc3ccc4ccccc4c3)C(=O)NCCCC[C@H](NC(=O)N[C@@H](CCC(=O)O)C(=O)O)C(=O)O)CC2)nn1)C[B-](F)(F)F [^18F-8]
- Ki (PSMA; LNCaP cells, 0.1 nM ^18F-DCFPyL radioligand, 1 h at 37°C, n = 3): 0.22 ± 0.01 nM
- LogD7.4 [1]: −3.58 ± 0.36
- T/B (tumor-to-blood ratio) (LNCaP xenografts [2]; 1 h after injection, unblocked): 30.95 ± 7.76
- T/K (tumor-to-kidney ratio) (LNCaP xenografts [2]; 1 h after injection, unblocked): 0.14 ± 0.07
- T/M (tumor-to-muscle ratio) (LNCaP xenografts [2]; 1 h after injection, unblocked): 67.23 ± 25.93
- adrenal uptake (LNCaP xenografts [2]; 1 h after injection, unblocked): 7.72 ± 2.70 %ID/g
- blood uptake (LNCaP xenografts [2]; 1 h after injection, unblocked): 0.56 ± 0.11 %ID/g
- bone uptake (LNCaP xenografts [2]; 1 h after injection, unblocked): 0.25 ± 0.10 %ID/g
- brain uptake (LNCaP xenografts [2]; 1 h after injection, unblocked): 0.02 ± 0.00 %ID/g
- fat uptake (LNCaP xenografts [2]; 1 h after injection, unblocked): 0.80 ± 0.28 %ID/g
- heart uptake (LNCaP xenografts [2]; 1 h after injection, unblocked): 0.28 ± 0.07 %ID/g
- intestine uptake (LNCaP xenografts [2]; 1 h after injection, unblocked): 0.32 ± 0.06 %ID/g
- kidney uptake (LNCaP xenografts [2]; 1 h after injection, unblocked): 143.85 ± 61.73 %ID/g
- liver uptake (LNCaP xenografts [2]; 1 h after injection, unblocked): 0.20 ± 0.05 %ID/g
- lung uptake (LNCaP xenografts [2]; 1 h after injection, unblocked): 1.97 ± 0.34 %ID/g
- muscle uptake (LNCaP xenografts [2]; 1 h after injection, unblocked): 0.27 ± 0.06 %ID/g
- pancreas uptake (LNCaP xenografts [2]; 1 h after injection, unblocked): 0.46 ± 0.15 %ID/g
- spleen uptake (LNCaP xenografts [2]; 1 h after injection, unblocked): 6.47 ± 2.17 %ID/g
- stomach uptake (LNCaP xenografts [2]; 1 h after injection, unblocked): 0.11 ± 0.03 %ID/g
- testes uptake (LNCaP xenografts [2]; 1 h after injection, unblocked): 0.57 ± 0.12 %ID/g
- tumor uptake compared with ^18F-DCFPyL (LNCaP xenografts [2]; [4]): higher uptake
- T/B (tumor-to-blood ratio) (LNCaP xenografts [2]; [5]): 0.92 ± 0.24
- T/K (tumor-to-kidney ratio) (LNCaP xenografts [2]; [5]): 0.17 ± 0.04
- T/M (tumor-to-muscle ratio) (LNCaP xenografts [2]; [5]): 3.07 ± 0.92
- adrenal uptake (LNCaP xenografts [2]; [5]): 0.14 ± 0.03 %ID/g
- blood uptake (LNCaP xenografts [2]; [5]): 0.39 ± 0.07 %ID/g
- bone uptake (LNCaP xenografts [2]; [5]): 0.15 ± 0.02 %ID/g
- brain uptake (LNCaP xenografts [2]; [5]): 0.01 ± 0.00 %ID/g
- fat uptake (LNCaP xenografts [2]; [5]): 0.06 ± 0.02 %ID/g
- heart uptake (LNCaP xenografts [2]; [5]): 0.13 ± 0.01 %ID/g
- intestine uptake (LNCaP xenografts [2]; [5]): 0.26 ± 0.05 %ID/g
- kidney uptake (LNCaP xenografts [2]; [5]): 2.19 ± 0.44 %ID/g
- liver uptake (LNCaP xenografts [2]; [5]): 0.16 ± 0.04 %ID/g
- lung uptake (LNCaP xenografts [2]; [5]): 0.33 ± 0.06 %ID/g
- muscle uptake (LNCaP xenografts [2]; [5]): 0.13 ± 0.06 %ID/g
- pancreas uptake (LNCaP xenografts [2]; [5]): 0.09 ± 0.03 %ID/g
- spleen uptake (LNCaP xenografts [2]; [5]): 0.12 ± 0.04 %ID/g
- stomach uptake (LNCaP xenografts [2]; [5]): 0.09 ± 0.04 %ID/g
- testes uptake (LNCaP xenografts [2]; [5]): 0.18 ± 0.09 %ID/g
- tumor uptake (LNCaP xenografts [2]; 1 h after injection, unblocked, listed as 8): 16.7 ± 2.7 %ID/g
- tumor uptake (LNCaP xenografts [2]; 1 h after injection, unblocked, listed as [18F]8): 16.66 ± 2.74 %ID/g
- tumor uptake (LNCaP xenografts [2]; [5]): 0.35 ± 0.03 %ID/g
- accumulation in the liver (LNCaP xenografts [3]; PET/CT): no significant accumulation in the liver
- clearance / excretion pathway (LNCaP xenografts [3]; imaging and biodistribution): no hepatobiliary excretion
